What was measured:
Experiment in all cases: viability relative to DMSO control (fraction); higher = less drug effect (more viable cells)
Conditions in all cases: 48 h
BEZ235 = compound: Cn1c(=O)n(-c2ccc(C(C)(C)C#N)cc2)c2c3cc(-c4cnc5ccccc5c4)ccc3ncc21 [BEZ235]
Procedure, shortened: (§1)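 Using 384-well plates with compounds already plated at five concentrations, one well per concentration, 4 × 10^4 primary mononuclear tumour cells were added per well. Cells were Ficoll-isolated from blood or bone marrow or came from processed lymph node, fresh or cryopreserved. They were kept for 48 h at 37 °C and 5% CO2 in RPMI-1640 supplemented with penicillin/streptomycin, L-glutamine and human serum, and viability was read as CellTiter-Glo luminescence relative to the median of 16 inner DMSO wells.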

Carfilzomib = compound: CC(C)C[C@H](NC(=O)[C@H](CCc1ccccc1)NC(=O)CN1CCOCC1)C(=O)N[C@@H](Cc1ccccc1)C(=O)N[C@@H](CC(C)C)C(=O)[C@@]1(C)CO1 [Carfilzomib]
Procedure, shortened: as §1

8-Azaguanin = compound: Nc1nc2n[nH]nc2c(=O)[nH]1 [8-Azaguanin]
Procedure, shortened: as §1

Tozasertib = compound: Cc1cc(Nc2cc(N3CCN(C)CC3)nc(Sc3ccc(NC(=O)C4CC4)cc3)n2)n[nH]1 [Tozasertib]
Procedure, shortened: as §1

ONO-4059 = compound: CC#CC(=O)N1CC[C@@H](n2c(=O)n(-c3ccc(Oc4ccccc4)cc3)c3c(N)ncnc32)C1 [ONO-4059]
Procedure, shortened: as §1

Nilotinib = compound: Cc1cn(-c2cc(NC(=O)c3ccc(C)c(Nc4nccc(-c5cccnc5)n4)c3)cc(C(F)(F)F)c2)cn1 [Nilotinib]
Procedure, shortened: as §1

Quizartinib = compound: CC(C)(C)c1cc(NC(=O)Nc2ccc(-c3cn4c(n3)sc3cc(OCCN5CCOCC5)ccc34)cc2)no1 [Quizartinib]
Procedure, shortened: as §1

EPZ-5676 = compound: CC(C)N(C[C@H]1O[C@@H](n2cnc3c(N)ncnc32)[C@H](O)[C@@H]1O)[C@H]1C[C@@H](CCc2nc3cc(C(C)(C)C)ccc3[nH]2)C1 [EPZ-5676]
Procedure, shortened: as §1

AG-221 (Enasidinib) = compound: CC(C)(O)CNc1nc(Nc2ccnc(C(F)(F)F)c2)nc(-c2cccc(C(F)(F)F)n2)n1 [AG-221 (Enasidinib)]
Procedure, shortened: as §1

BI6727 = compound: CC[C@@H]1C(=O)N(C)c2cnc(Nc3ccc(C(=O)N[C@H]4CC[C@H](N5CCN(CC6CC6)CC5)CC4)cc3OC)nc2N1C(C)C [BI6727]
Procedure, shortened: as §1

Bortezomib = compound: CC(C)C[C@H](NC(=O)[C@H](Cc1ccccc1)NC(=O)c1cnccn1)B(O)O [Bortezomib]
Procedure, shortened: as §1

Nelarabine = compound: COc1nc(N)nc2c1ncn2[C@@H]1O[C@H](CO)[C@@H](O)[C@@H]1O [Nelarabine]
Procedure, shortened: as §1

Pacritinib = compound: C1=N/C2=N/c3ccc(OCCN4CCCC4)c(c3)COC/C=C/COCc3cccc(c3)C(=C1)N2 [Pacritinib]
Procedure, shortened: as §1

Vincristine = compound: CC[C@]1(O)C[C@H]2CN(CCc3c([nH]c4ccccc34)[C@@](C(=O)OC)(c3cc4c(cc3OC)N(C=O)[C@H]3[C@@](O)(C(=O)OC)[C@H](OC(C)=O)[C@]5(CC)C=CCN6CC[C@]43[C@@H]65)C2)C1 [Vincristine]
Procedure, shortened: as §1

## primary BL patient cells (S005)
BEZ235; 0.024 µM
  viability: 1.28
BEZ235; 0.12 µM
  viability: 0.972
BEZ235; 0.6 µM
  viability: 1.12
BEZ235; 3 µM
  viability: 0.756
BEZ235; 15 µM
  viability: 0.544
Carfilzomib; 0.00016 µM
  viability: 1.54
Carfilzomib; 0.0008 µM
  viability: 0.957
Carfilzomib; 0.004 µM
  viability: 1
Carfilzomib; 0.02 µM
  viability: 0.357
Carfilzomib; 0.1 µM
  viability: 0.284
8-Azaguanin; 0.032 µM
  viability: 0.991
8-Azaguanin; 0.16 µM
  viability: 1.05
8-Azaguanin; 0.8 µM
  viability: 0.978
8-Azaguanin; 4 µM
  viability: 0.812
8-Azaguanin; 20 µM
  viability: 0.658
Tozasertib; 0.024 µM
  viability: 0.826
Tozasertib; 0.12 µM
  viability: 1.33
Tozasertib; 0.6 µM
  viability: 0.802
Tozasertib; 3 µM
  viability: 1.17
Tozasertib; 15 µM
  viability: 0.568
ONO-4059; 0.0016 µM
  viability: 1.07
ONO-4059; 0.008 µM
  viability: 1.12
ONO-4059; 0.04 µM
  viability: 1.06
ONO-4059; 0.2 µM
  viability: 1.15
ONO-4059; 1 µM
  viability: 1.07
Nilotinib; 0.016 µM
  viability: 1.08
Nilotinib; 0.08 µM
  viability: 1.02
Nilotinib; 0.4 µM
  viability: 1.07
Nilotinib; 2 µM
  viability: 1.03
Nilotinib; 10 µM
  viability: 1.02
Quizartinib; 0.016 µM
  viability: 1.01
Quizartinib; 0.08 µM
  viability: 1.1
Quizartinib; 0.4 µM
  viability: 1.07
Quizartinib; 2 µM
  viability: 1.11
Quizartinib; 10 µM
  viability: 0.966
EPZ-5676; 0.0032 µM
  viability: 1.54
EPZ-5676; 0.016 µM
  viability: 1.13
EPZ-5676; 0.08 µM
  viability: 1.46
EPZ-5676; 0.4 µM
  viability: 1.35
EPZ-5676; 2 µM
  viability: 1
AG-221 (Enasidinib); 0.024 µM
  viability: 0.867
AG-221 (Enasidinib); 0.12 µM
  viability: 1.43
AG-221 (Enasidinib); 0.6 µM
  viability: 0.806
AG-221 (Enasidinib); 3 µM
  viability: 1.26
AG-221 (Enasidinib); 15 µM
  viability: 1.35
BI6727; 0.024 µM
  viability: 0.931
BI6727; 0.12 µM
  viability: 0.881
BI6727; 0.6 µM
  viability: 0.9
BI6727; 3 µM
  viability: 0.725
BI6727; 15 µM
  viability: 0.483
Bortezomib; 0.008 µM
  viability: 1.57
Bortezomib; 0.04 µM
  viability: 0.959
Bortezomib; 0.2 µM
  viability: 1.54
Bortezomib; 1 µM
  viability: 0.964
Bortezomib; 5 µM
  viability: 1.44
Nelarabine; 0.024 µM
  viability: 0.894
Nelarabine; 0.12 µM
  viability: 0.99
Nelarabine; 0.6 µM
  viability: 0.893
Nelarabine; 3 µM
  viability: 0.996
Nelarabine; 15 µM
  viability: 0.873
Pacritinib; 0.024 µM
  viability: 1
Pacritinib; 0.12 µM
  viability: 1
Pacritinib; 0.6 µM
  viability: 0.879
Pacritinib; 3 µM
  viability: 0.657
Pacritinib; 15 µM
  viability: 0.241
Vincristine; 0.016 µM
  viability: 1.08
Vincristine; 0.08 µM
  viability: 0.912
Vincristine; 0.4 µM
  viability: 1.11
Vincristine; 2 µM
  viability: 0.811
Vincristine; 10 µM
  viability: 1.08

## primary AML patient cells (S002)
BEZ235; 0.024 µM
  viability: 0.979
BEZ235; 0.12 µM
  viability: 0.963
BEZ235; 0.6 µM
  viability: 0.868
BEZ235; 3 µM
  viability: 0.853
BEZ235; 15 µM
  viability: 0.409
Carfilzomib; 0.00016 µM
  viability: 0.941
Carfilzomib; 0.0008 µM
  viability: 0.633
Carfilzomib; 0.004 µM
  viability: 0.195
Carfilzomib; 0.02 µM
  viability: 0.0988
Carfilzomib; 0.1 µM
  viability: 0.0663
8-Azaguanin; 0.032 µM
  viability: 1.06
8-Azaguanin; 0.16 µM
  viability: 1.01
8-Azaguanin; 0.8 µM
  viability: 1.01
8-Azaguanin; 4 µM
  viability: 0.827
8-Azaguanin; 20 µM
  viability: 0.376
Tozasertib; 0.024 µM
  viability: 1.09
Tozasertib; 0.12 µM
  viability: 0.779
Tozasertib; 0.6 µM
  viability: 0.738
Tozasertib; 3 µM
  viability: 0.647
Tozasertib; 15 µM
  viability: 0.474
ONO-4059; 0.0016 µM
  viability: 1.07
ONO-4059; 0.008 µM
  viability: 1.08
ONO-4059; 0.04 µM
  viability: 0.919
ONO-4059; 0.2 µM
  viability: 0.971
ONO-4059; 1 µM
  viability: 0.997
Nilotinib; 0.016 µM
  viability: 1.1
Nilotinib; 0.08 µM
  viability: 1.24
Nilotinib; 0.4 µM
  viability: 1.18
Nilotinib; 2 µM
  viability: 1.23
Nilotinib; 10 µM
  viability: 1.31
Quizartinib; 0.016 µM
  viability: 1.11
Quizartinib; 0.08 µM
  viability: 1.07
Quizartinib; 0.4 µM
  viability: 1.06
Quizartinib; 2 µM
  viability: 1.18
Quizartinib; 10 µM
  viability: 1.07
EPZ-5676; 0.0032 µM
  viability: 0.98
EPZ-5676; 0.016 µM
  viability: 1.08
EPZ-5676; 0.08 µM
  viability: 0.936
EPZ-5676; 0.4 µM
  viability: 1.01
EPZ-5676; 2 µM
  viability: 1.04
AG-221 (Enasidinib); 0.024 µM
  viability: 0.784
AG-221 (Enasidinib); 0.12 µM
  viability: 0.841
AG-221 (Enasidinib); 0.6 µM
  viability: 0.857
AG-221 (Enasidinib); 3 µM
  viability: 0.8
AG-221 (Enasidinib); 15 µM
  viability: 0.693
BI6727; 0.024 µM
  viability: 0.839
BI6727; 0.12 µM
  viability: 0.702
BI6727; 0.6 µM
  viability: 0.553
BI6727; 3 µM
  viability: 0.343
BI6727; 15 µM
  viability: 0.263
Bortezomib; 0.008 µM
  viability: 0.958
Bortezomib; 0.04 µM
  viability: 1.03
Bortezomib; 0.2 µM
  viability: 0.959
Bortezomib; 1 µM
  viability: 0.953
Bortezomib; 5 µM
  viability: 0.986
Nelarabine; 0.024 µM
  viability: 1.07
Nelarabine; 0.12 µM
  viability: 0.999
Nelarabine; 0.6 µM
  viability: 0.946
Nelarabine; 3 µM
  viability: 0.961
Nelarabine; 15 µM
  viability: 0.779
Pacritinib; 0.024 µM
  viability: 0.955
Pacritinib; 0.12 µM
  viability: 0.884
Pacritinib; 0.6 µM
  viability: 0.814
Pacritinib; 3 µM
  viability: 0.421
Pacritinib; 15 µM
  viability: 0.274
Vincristine; 0.016 µM
  viability: 1.11
Vincristine; 0.08 µM
  viability: 1.18
Vincristine; 0.4 µM
  viability: 1.14
Vincristine; 2 µM
  viability: 0.99
Vincristine; 10 µM
  viability: 0.961

From the supplement of paper PMC10733146
